# From US7456216B2, “Methods for the preparation and formulation of l-carnitine valproate salts” (BioLink Life Sciences, Inc., priority 2007, dated 2008)
# Legend:
# deacetylase = conditions: dose between 20 and 40 mg/kg; patients with cervical cancer; cited from earlier work
# [1] = Storage in ambient atmosphere, gross weight monitored over 6 days (hygroscopicity); assay type: physicochemical; conditions: for Conclusion & Observations (hygroscopicity): 6 days in ambient atmosphere; for Net weight, final / Change of net weight, final vs initial: after 6 days in ambient atmosphere; for Net weight, initial: weighed portion before exposure to ambient atmosphere
# Protocol: The effects of storage of the L-carnitine valproate salts of Examples 1 and 2 in ambient atmospheres were monitored for 6 days. For comparison, L-carnitine (Sigma Aldrich Chemical Co.), sodium valproate (Sigma Aldrich Chemical Co.), and divalproex sodium were also monitored in the same manner. The experiment was performed by weighing portions of each compound into a tared glass container and periodically monitoring the gross weight of the compound+container over a 6 day period.
# [2] = Storage in a closed and sealed container (stability, odor); assay type: physicochemical; conditions: for Odor detected during storage: trimethylamine odor indicates degradation
# Description: L-Carnitine magnesium salts of the present invention are stable when stored in a closed and sealed container. […] Both L-carnitine calcium valproate and L-carnitine magnesium valproate are converted to the corresponding hydrates by exposure to water vapor in the atmosphere. Each hydrate has a characteristic melting point.
# [3] = conventional L-carnitine; cited from earlier work
# [4] = Solubility in water or aqueous solutions; assay type: physicochemical
# [5] = cited from earlier work
compound,measurement,setting,value
magnesium 2-propylvalerate [magnesium valproate],Deacetylase activity in tumor tissues,deacetylase,inhibits deacetylase activity and hyperacetylates histones in tumor tissues
"CCCC(CCC)C(=O)O [Divalproex sodium, reference compound]",Conclusion & Observations (hygroscopicity),[1],Mass of the material did not change. Material is not hygroscopic.
same,"Net weight, final",[1],100 mg
same,"Net weight, initial",[1],100 mg
"CCCC(CCC)C(=O)[O-].[Na+] [Sodium valproate, reference compound]",Conclusion & Observations (hygroscopicity),[1],very hygroscopic.
L-carnitine calcium valproate,Conclusion & Observations (hygroscopicity),[1],Appearance and mobility of the material did not change. Material absorbed water
same,"Change of net weight, final vs initial",[1],(+5%)
same,"Net weight, final",[1],202 mg
same,"Net weight, initial",[1],194 mg
same,Stability during storage,[2],stable
same,Odor detected during storage,[2],no odor is detected
"C[N+](C)(C)C[C@H](O)CC(=O)[O-] [L-Carnitine, L-(−)-Carnitine]",Conclusion & Observations (hygroscopicity),[1],Material is hygroscopic.
same,"Net weight, final",[1],>227 mg
same,"Net weight, initial",[1],208 mg
same,Bioavailability of L-carnitine,[3],15-20 % of the administered dose
L-carnitine magnesium valproate,Conclusion & Observations (hygroscopicity),[1],"Material absorbed water and was converted to a hydrate, which is further"
same,"Change of net weight, final vs initial",[1],(+15%)
same,"Net weight, final",[1],163 mg
same,"Net weight, initial",[1],142 mg
same,Solubility in water or aqueous solutions,[4],readily dissolved in water or aqueous solutions
same,Stability during storage,[2],stable
same,Odor detected during storage,[2],a slight odor of trimethylamine is detected
"CCCC(CCC)C(=O)O [Valproic acid, 2-propylpentanoic acid]",Solubility in water,[5],very slightly soluble in water
